Assays:
Assay in all cases: relative viability (nuclei count vs DMSO), 5 days (fraction); higher = more cells survive
IU1-47 + Luminespib = compound: CC1=CC(=C(N1C2=CC=C(C=C2)Cl)C)C(=O)CN3CCCCC3 [IU1-47] + CCNC(=O)c1noc(-c2cc(C(C)C)c(O)cc2O)c1-c1ccc(CN2CCOCC2)cc1 [Luminespib] (partner 0.01 µM)
Outline: (§1)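 Lung cancer cell lines were seeded in 1536-well plates and dosed by pin tool the next day, with either a single drug or a fixed anchor-drug dose combined with five library-drug doses (not always all listed) spaced in √10 steps. Five days later, one step fixed the cells and stained their nuclei (final 0.05% Triton X-100, 1% formaldehyde, 1 ug/ml Hoechst), and nuclei were counted on 4× images. Relative viability is the nuclei count in treated wells divided by the count in vehicle wells, and each value is the median of duplicate plates.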

IU1-47 + Pictilisib = compound: CC1=CC(=C(N1C2=CC=C(C=C2)Cl)C)C(=O)CN3CCCCC3 [IU1-47] + CS(=O)(=O)N1CCN(Cc2cc3nc(-c4cccc5[nH]ncc45)nc(N4CCOCC4)c3s2)CC1 [Pictilisib] (partner 1 µM)
Outline: as §1

FG-4592 + OSI-027 = compound: Cc1nc(C(=O)NCC(=O)O)c(O)c2ccc(Oc3ccccc3)cc12 [FG-4592] + COc1cccc2cc(-c3nc([C@H]4CC[C@H](C(=O)O)CC4)n4ncnc(N)c34)[nH]c12 [OSI-027] (partner 0.5 µM)
Outline: as §1

FG-4592 + AZD7762 = compound: Cc1nc(C(=O)NCC(=O)O)c(O)c2ccc(Oc3ccccc3)cc12 [FG-4592] + NC(=O)Nc1cc(-c2cccc(F)c2)sc1C(=O)N[C@H]1CCCNC1 [AZD7762] (partner 0.2 µM)
Outline: as §1

Cell Line | relative viability (IU1-47 + Luminespib; first compound 0.08 µM) | relative viability (IU1-47 + Luminespib; first compound 0.253 µM) | relative viability (IU1-47 + Luminespib; first compound 0.8 µM) | relative viability (IU1-47 + Luminespib; first compound 2.53 µM) | relative viability (IU1-47 + Luminespib; first compound 8 µM) | relative viability (IU1-47 + Pictilisib; first compound 0.08 µM) | relative viability (IU1-47 + Pictilisib; first compound 0.253 µM) | relative viability (IU1-47 + Pictilisib; first compound 0.8 µM) | relative viability (IU1-47 + Pictilisib; first compound 2.53 µM) | relative viability (IU1-47 + Pictilisib; first compound 8 µM) | relative viability (FG-4592 + OSI-027; first compound 0.08 µM) | relative viability (FG-4592 + OSI-027; first compound 0.253 µM) | relative viability (FG-4592 + OSI-027; first compound 0.8 µM) | relative viability (FG-4592 + OSI-027; first compound 2.53 µM) | relative viability (FG-4592 + OSI-027; first compound 8 µM) | relative viability (FG-4592 + AZD7762; first compound 0.08 µM) | relative viability (FG-4592 + AZD7762; first compound 0.253 µM) | relative viability (FG-4592 + AZD7762; first compound 0.8 µM) | relative viability (FG-4592 + AZD7762; first compound 2.53 µM) | relative viability (FG-4592 + AZD7762; first compound 8 µM)
LCLC-103H | 1.11 | 0.982 | 1.03 | 0.818 | 0.989 | 0.586 | 0.566 | 0.624 | 0.509 | 0.639 | 0.445 | 0.45 | 0.455 | 0.421 | 0.373 | 0.609 | 0.741 | 0.635 | 0.785 | 0.686
LK-2 | 0.235 | 0.165 | 0.175 | 0.213 | 0.17 | 0.606 | 0.614 | 0.615 | 0.412 | 0.474 | 0.185 | 0.19 | 0.223 | 0.185 | 0.174 | 0.273 | 0.355 |  | 0.358 | 0.342
LOU-NH91 | 0.326 | 0.299 | 0.294 | 0.276 | 0.336 | 0.502 | 0.529 | 0.429 | 0.512 | 0.51 | 0.722 | 0.399 | 0.753 | 0.666 | 0.687 | 0.755 | 0.733 | 0.717 | 0.723 | 0.732
LU99A | 0.32 | 0.182 | 0.273 | 0.302 | 0.259 | 0.35 | 0.337 | 0.275 | 0.312 | 0.298 | 0.332 | 0.276 | 0.296 | 0.267 | 0.27 | 0.37 | 0.387 |  | 0.381 | 0.346
LXF-289 | 0.822 | 0.629 | 0.916 | 0.5 | 0.468 | 0.8 | 0.754 | 0.772 | 0.822 | 0.688 | 0.659 | 0.717 | 0.755 | 0.709 | 0.821 | 1.12 | 1.01 | 1.27 | 1.08 | 1.34
NCI-H23 | 0.206 | 0.237 | 0.203 | 0.229 | 0.209 | 0.43 | 0.492 | 0.44 | 0.543 | 0.435 | 0.612 | 0.517 | 0.488 | 0.325 | 0.439 | 0.243 | 0.257 | 0.206 | 0.285 | 0.164
NCI-H322M | 1.03 | 0.929 | 0.922 | 0.879 | 0.715 | 0.56 | 0.478 | 0.514 | 0.517 | 0.513 | 0.507 | 0.543 | 0.557 | 0.488 | 0.469 |  | 0.518 | 0.497 | 0.629 | 0.43
NCI-H358 | 0.366 | 0.328 | 0.347 | 0.3 | 0.349 | 0.287 | 0.323 | 0.352 |  | 0.366 | 0.695 | 0.664 | 0.83 | 0.702 | 0.572 | 0.44 | 0.502 | 0.55 | 0.502 | 0.458
NCI-H441 | 0.328 | 0.336 | 0.478 | 0.379 | 0.343 | 0.483 | 0.486 | 0.464 | 0.504 | 0.43 | 0.589 | 0.537 | 0.621 | 0.465 | 0.563 | 1.26 | 0.852 | 1.46 | 1 | 0.978
NCI-H460 | 0.0244 | 0.0322 | 0.0367 | 0.0341 | 0.0295 | 0.385 | 0.284 | 0.381 | 0.359 | 0.345 | 0.757 | 0.641 | 0.721 | 0.554 | 0.614 | 0.698 | 0.583 | 0.462 | 0.725 | 0.668
NCI-H596 | 0.926 | 1.05 | 1 | 1.12 | 0.752 | 0.393 | 0.367 | 0.405 | 0.429 | 0.393 | 0.595 | 0.634 | 0.513 | 0.431 | 0.434 | 1.1 | 1.08 |  | 1.15 | 0.952
NCI-H647 | 0.409 | 0.276 | 0.125 | 0.221 | 0.176 | 0.467 | 0.52 | 0.453 |  | 0.359 | 0.547 | 0.675 | 0.686 | 0.565 | 0.602 | 0.431 | 0.429 | 0.367 | 0.422 | 0.532
NCI-H650 | 0.849 | 0.81 | 0.831 | 0.671 | 0.828 | 0.882 | 1 | 0.932 | 0.968 | 0.832 | 0.492 | 0.457 | 0.433 | 0.45 | 0.407 | 1.06 | 1.03 | 1.09 | 1.04 | 0.755
NCI-H727 | 0.356 | 0.241 | 0.803 | 0.365 | 0.293 | 0.33 |  | 0.356 | 0.264 | 0.355 | 0.41 | 0.46 | 0.596 | 0.524 | 0.593 | 0.51 | 0.555 | 0.763 | 0.563 | 0.482
NCI-H838 | 0.31 | 0.347 | 0.262 | 0.243 | 0.282 | 0.391 | 0.462 | 0.485 | 0.436 | 0.425 | 0.372 | 0.31 | 0.389 | 0.289 | 0.357 | 0.899 | 0.888 | 0.976 | 0.981 | 0.916
NCI-H1355 | 0.773 | 0.721 | 0.735 |  | 0.64 | 0.489 | 0.457 | 0.363 | 0.251 | 0.415 | 0.376 | 0.372 | 0.353 | 0.301 | 0.35 | 0.907 | 0.669 |  | 0.809 | 0.723

— the supplement of paper PMC10307832
